Values quoted from earlier work as cited in patent US20240182421A1, “SYNTHESIS OF ENDOCHIN-LIKE QUINOLONES” (Oregon Health & Science University, priority 2021, published 2024).
“Also recorded” adds a separate entry of the source.

What was measured:
[1] = test system: apicomplexan parasites of importance to veterinary medicine
malaria = settings: compared with ELQ-300
avian malaria = settings: in vivo

Row | SMILES | activity against a range of apicomplexan parasites of importance to veterinary medicine [1] | antimalarial activity in vivo (malaria) | antiparasitic activity / potency against Babesia microti (Babesia microti) | antiparasitic activity / potency against Toxoplasma gondii (Toxoplasma gondii) | activity in the avian malaria model (avian malaria)
1 | COc1cc2[nH]c(C)c(-c3ccc(Oc4ccc(OC(F)(F)F)cc4)cc3)c(=O)c2cc1F [ELQ-316, 6-Fluoro-7-methoxy-2-methyl-3-(4-(4-(trifluoromethoxy)phenoxy)phenyl)quinolin-4(1H)-one] | active | slightly less antimalarial activity than ELQ-300 | greatest potency; also recorded: superior antiparasitic activity | greatest potency; also recorded: superior antiparasitic activity | –
2 | COc1cc2[nH]c(C)c(-c3ccc(Oc4ccc(OC(F)(F)F)cc4)cc3)c(=O)c2cc1Cl [ELQ-300, 6-Chloro-7-methoxy-2-methyl-3-(4-(4-(trifluoromethoxy)phenoxy)phenyl)quinolin-4(1H)-one] | active | – | – | – | –
3 | CCCCCCCc1c(C)[nH]c2cc(OC)ccc2c1=O [endochin] | – | – | – | – | high activity
